Measurements from PMC4138103 (PLoS ONE, 2014).
Several values for one entry are separate records, joined by “and”; a condition that tells them apart may be missing. Identical values can stand only once.

Tested on: Sprague-Dawley rats
Experiment: Retinoid analyses in liver, serum and kidney
Assay type: in vivo, Rattus norvegicus
Conditions: males
Protocol: Retinoids in liver, serum, and kidney were analyzed according to Schmidt et al.. The polar retinoids 9-cis-retinoic acid (9-cis-RA), 13-cis-retinoic acid (13-cis-RA), 13-cis-4-oxo-retinoic acid (13-cis-4-o-RA), 9-cis-4-oxo-13,14-dihydro-retinoic acid (9-cis-4-o-13,14-dh-RA), all-trans retinoic acid (all-trans RA) and the apolar retinoids retinol and retinyl palmitate were extracted by a single liquid-extraction, separated from each other via solid-phase extraction using an aminopropyl phase, and then injected onto two different HPLC systems that were coupled with UV detection. […] The limits of detection (LOD) for all-trans RA and 9c-4o-13,14-dh-RA were 0.7 and 1.0 pmol/g tissue, and 0.3 and 0.6 pmol/ml serum, respectively. Retinol and retinyl palmitate were separated on a J'sphere ODS-H80 (4.6×150 mm, 4 µm particle size) obtained from YMC (Schermbeck, Germany), and were detected at 325 nm. The LOD for retinol and retinyl palmitate were 5.6 and 5.5 pmol/g tissue, and 4.2 and 4.2 pmol/ml serum, respectively.
Data were also analyzed using the BMD method, which is based on dose-response modeling of the full data set using a nested family of exponential and Hill models. The analyses were done on data of males and females combined, using sex as a covariate. […] In that case, different Critical Effect Doses (CEDs) and CEDs at the lowest bound of the confidence interval (CED-L) were generated for each sex. If no difference between sexes is detected, a CED and CED-Ls for the combined data is generated. However, this was also done if the curve fits are close, and separate analyses for males and females were then performed manually. CEDs and CED-Ls were calculated at the predefined Critical Effect Size (CES) of 5% (EFSA standard) or 10%.

[1] = total dose 100 mg/kg bw, group mean, N=5
[2] = total dose 300 mg/kg bw, group mean, N=5
[3] = total dose 1000 mg/kg bw, group mean, N=5
[4] = total dose 1700 mg/kg bw, group mean, N=5
[5] = adipose tissue concentration based
[6] = controls vs high dose, fitted model

## Clc1cc(Cl)c(-c2cc(Cl)c(Cl)c(Cl)c2Cl)cc1Cl [PCB 180, 2,2′,3′,4,4′,5,5′-heptachlorobiphenyl]
Total dose 100 mg/kg bw, Liver
  Liver Retinyl esters: 84.5 pmol/mL
Total dose 100 mg/kg bw, Liver, n=4
  Liver Retinol: 1.75 pmol/mL
[1]
  Kidney All-trans RA: 37.0 pmol
  Kidney Retinol: 17.3 nmol
  Kidney Retinyl esters: 8.84 nmol
  Liver All-trans RA: 744 pmol
  Liver Retinol: 0.26 µmol
  Liver Retinyl esters: 10.3 µmol
Total dose 100 mg/kg bw, n=3
  Liver 9-cis-4o-13,14-dh-RA: 22.7 pmol/g
Total dose 100 mg/kg bw, n=4
  Serum Retinol: 1.75 pmol/mL
Total dose 300 mg/kg bw
  Kidney All-trans RA: 35.9 pmol/g
  Kidney Retinol: 17.5 nmol/g
  Kidney Retinyl esters: 13.9 nmol/g
  Liver All-trans RA: 48.1 pmol/g
  Liver Retinol: 17.4 nmol/g
  Liver Retinyl esters: 0.56 µmol/g
  Serum Retinol: 1.64 pmol/mL
  Serum Retinyl esters: 67.8 pmol/mL
Total dose 300 mg/kg bw, Liver
  Liver Retinol: 1.64 pmol/mL
  Liver Retinyl esters: 67.8 pmol/mL
[2]
  Kidney All-trans RA: 37.8 pmol
  Kidney Retinol: 18.2 nmol
  Kidney Retinyl esters: 14.5 nmol
  Liver All-trans RA: 863 pmol
  Liver Retinol: 0.31 µmol
  Liver Retinyl esters: 10.1 µmol
Total dose 300 mg/kg bw, n=4
  Liver 9-cis-4o-13,14-dh-RA: 20.9 pmol/g
[3]
  Kidney All-trans RA: 35.9 pmol
  Kidney Retinol: 24.5 nmol
  Kidney Retinyl esters: 24.5 nmol
  Liver 9-cis-4o-13,14-dh RA: 455 pmol
  Liver All-trans RA: 1077 pmol
  Liver Retinol: 0.27 µmol
  Liver Retinyl esters: 8.2 µmol
[4]
  Kidney All-trans RA: 32.4 pmol
  Kidney Retinol: 23.3 nmol
  Kidney Retinyl esters: 25.2 nmol
  Liver All-trans RA: 1178 pmol
  Liver Retinol: 0.23 µmol
  Liver Retinyl esters: 6.4 µmol
CES 5%, total dose based
  Kidney retinol amount, CED: 206 mg/kg bw
  Kidney retinol amount, CED-L: 147 mg/kg bw
  Kidney retinol concentration, CED: 200 mg/kg bw
  Kidney retinol concentration, CED-L: 149 mg/kg bw
  Kidney retinyl esters amount, CED: 9.14 mg/kg bw
  Kidney retinyl esters amount, CED-L: 3.10 mg/kg bw
  Kidney retinyl esters concentration, CED: 9.9 mg/kg bw and 9.88 mg/kg bw
  Kidney retinyl esters concentration, CED-L: 3.35 mg/kg bw
  Liver all-trans RA amount, CED: 21.7 mg/kg bw
  Liver all-trans RA amount, CED-L: 9.07 mg/kg bw
  Liver all-trans RA concentration, CED: 450 mg/kg bw
  Liver all-trans RA concentration, CED-L: 268 mg/kg bw
  Liver retinol amount, CED: 437 mg/kg bw
  Liver retinol amount, CED-L: 261 mg/kg bw
  Liver retinol concentration, CED: 32 mg/kg bw and 31.9 mg/kg bw
  Liver retinol concentration, CED-L: 6.10 mg/kg bw
  Liver retinyl esters amount, CED: 145 mg/kg bw
  Liver retinyl esters amount, CED-L: 123 mg/kg bw
  Liver retinyl esters concentration, CED: 22 mg/kg bw and 21.5 mg/kg bw
  Liver retinyl esters concentration, CED-L: 12.9 mg/kg bw
CES 10%, total dose based
  Kidney retinol amount, CED: 402 mg/kg bw
  Kidney retinol amount, CED-L: 288 mg/kg bw
  Kidney retinol concentration, CED: 390 mg/kg bw
  Kidney retinol concentration, CED-L: 291 mg/kg bw
  Kidney retinyl esters amount, CED: 18.5 mg/kg bw
  Kidney retinyl esters amount, CED-L: 6.26 mg/kg bw
  Kidney retinyl esters concentration, CED: 20 mg/kg bw
  Kidney retinyl esters concentration, CED-L: 6.77 mg/kg bw
  Liver all-trans RA amount, CED: 44.7 mg/kg bw
  Liver all-trans RA amount, CED-L: 18.7 mg/kg bw
  Liver all-trans RA concentration, CED: 879 mg/kg bw
  Liver all-trans RA concentration, CED-L: 523 mg/kg bw
  Liver retinol amount, CED: 897 mg/kg bw
  Liver retinol amount, CED-L: 536 mg/kg bw
  Liver retinol concentration, CED: 56 mg/kg bw
  Liver retinol concentration, CED-L: 10.4 mg/kg bw
  Liver retinyl esters amount, CED: 296 mg/kg bw
  Liver retinyl esters amount, CED-L: 252 mg/kg bw
  Liver retinyl esters concentration, CED: 43.9 mg/kg bw
  Liver retinyl esters concentration, CED-L: 26.6 mg/kg bw
[5]
  Kidney retinol concentration, CED: 863 µg/g lipid
  Kidney retinyl ester concentration, CED: 42 µg/g lipid
  Liver all-trans RA concentration, CED: 1920 µg/g lipid
  Liver retinol concentration, CED: 31 µg/g lipid
  Liver retinol, CED-L: 18800 ng/g lipid
  Liver retinyl ester concentration, CED: 108 µg/g lipid
[6]
  Kidney retinol concentration, Maximum response: 51.5%
  Liver all-trans RA concentration, Maximum response: 20% and 20.3%
Total dose 10 mg/kg bw, group mean, n=3
  Liver 9-cis-4o-13,14-dh RA: 163 pmol
Total dose 30 mg/kg bw, n=1
  Liver 9-cis-4o-13,14-dh RA: 389b pmol
  Liver 9-cis-4o-13,14-dh-RA: 30.8 pmol·days/g
Total dose 100 mg/kg bw, group mean, n=3
  Liver 9-cis-4o-13,14-dh RA: 434 pmol
Total dose 300 mg/kg bw, group mean, n=4
  Liver 9-cis-4o-13,14-dh RA: 403 pmol
Total dose 1700 mg/kg bw, group mean, n=4, one exceptionally high value excluded as an outlier
  Liver 9-cis-4o-13,14-dh RA: 454 pmol
